In patent publication US20220242812A1, “SWELL1-LRRC8 COMPLEX MODULATORS” (Washington University, priority 2019, published 2022):

Columns and labels:
[1] = target: T1, closed SWELL1-LRRC8 channel in HEK-293 cells (Homo sapiens, UniProt Q8IWT6); assay: ICl,SWELL inhibition on application to the closed SWELL1-LRRC8 channel (30 min preincubation), HEK-293 cells; type: cell-based; conditions: 30 minutes prior to hypotonic activation
T1 construct: endogenous in cells; host or cells: HEK-293 (ATCC CRL-1573)
Description: Patch-clamp recordings of β-cells and mature adipocytes were performed as described previously (Kang et al., 2018; Zhang et al., 2017). 3T3-F442A WT and KO preadipocytes were prepared as described in the Cell culture section above. For SWELL1 overexpression recordings, preadipocytes were first transduced with Ad5-CAG-LoxP-stop-LoxP-3×Flag-SWELL1 (MOI 12) in 2% FBS culture medium for two days and then overexpression induced by adding Ad5-CMV-Cre-wt-lRES-eGFP (MOI 10-12) in 2% FBS culture medium for two more days and changed to 10% FBS containing culture media and were selected based on GFP expression (˜2-3 days). For cell recordings, islets were transduced with Ad-RIP2-GFP and then dispersed after 48-72 hours for patch-clamp experiments. GFP+ cells marked β-cells selected for patch-clamp recordings. […] Recordings were measured using […] amplifier paired to a Digidata 1550 digitizer using pClamp 10.4 software. The extracellular buffer composition for hypotonic stimulation contains 90 mM NaCl, 2 mM CsCl, 1 mM MgCl, 1 mM CaCb, 10 mM HEPES, 10 mM Mannitol, pH 7.4 with NaOH (210 mOsm/kg). The extracellular isotonic buffer composition is same as above except for Mannitol concentration of 110 mM (300 mOsm/kg). The composition of intracellular buffer is 120 mM L-aspartic acid, 20 mM CsCl, 1 mM MgCl, 5 mM EGTA, 10 mM HEPES, 5 mM MgATP, 120 mM CsOH, 0.1 mM GTP, pH 7.2 with CsOH. All recordings were carried out at room temperature (RT) with HEK-293 cells, β-cells and 3T3-F442A cells performed in whole-cell configuration and human adipocytes in perforated-patch configuration, as previously described (Kang et al., 2018; Zhang et al., 2017).

[2] = system: endogenous SWELL1 plasma membrane localization; type: cell-based; conditions: 3T3-F442A preadipocytes, 1 or 10 μM 48 h, compared to vehicle or SN071
Description: 3T3-F442A preadipocytes (WT, KO) and differentiated adipocytes without or with SWELL1 overexpression (WT+SWELL1 O/E, KO+SWELL1 O/E) were prepared as described in the Cell culture section on collagen coated coverslips. […] Either anti-SWELL1 (1:400) or anti-Flag (1:1500, Sigma #F3165) antibody were added to the cells and incubated overnight at 4° C. The cells were then washed three times (1×PBS) prior and post to the addition of 1:1000 Alexa Flour 488/568 secondary antibody (anti-rabbit, #A11034 or anti-mouse, #A11004) for 1 hour at RT. Cells were counterstained with nuclear TO-PRO-3 (Life Technologies, #T3605) or DAPI (Invitrogen, #D1306) staining (1 μM) for 20 min followed by three washes with 1×PBS. Coverslips were further mounted on slides with Prolong Diamond anti-fading media. All images were captured using Zeiss LSM700/LSM510 confocal microscope with 63× objective (NA 1.4). SWELL1 membrane localization was quantified by stacking all the z-images and converting it into a binary image where the cytoplasmic intensity per unit area was subtracted from the total cell intensity per unit area using ImageJ software.

[3] = system: HFD-induced T2D mice; assay: Metabolic phenotyping (fasting glucose, GTT, ITT) in HFD-fed T2D mice; type: in vivo
Description: All compounds were dissolved in Kolliphor® EL (Sigma, #C5135).
Mice were fasted for 6 h prior to glucose tolerance tests (GTT). Baseline glucose levels at 0 min timepoint (fasting glucose, FG) were measured from blood sample collected from tail snipping using glucometer (Bayer Healthcare LLC). Either 1 g or 0.75 g D-Glucose/kg body weight were injected (i.p.) for lean or HFD mice, respectively and glucose levels were measured at 7, 15, 30, 60, 90 and 120 min timepoints after injection. For insulin tolerance tests (ITTs), the mice were fasted for 4 h. […] All mice and treatment groups were assessed blindly while performing experiments.

[4] = In vivo pharmacokinetics in mice; conditions: for bioavailability: male, C57/BL6, mouse, plasma, po, 5 mg/kg, AUCp.o./AUCi.v.; for AUCinf / Cmax / T-half: single dose 5 mg/kg
Description: Male C57/BL6 mice were used in the study and assessed for a single dose (5 mg/kg) administration. The compounds were prepared in Cremaphor for i.p. and p.o dose routes and in 5% ethanol, 10% Tween-20 and water mix for i.v. route at a final concentration of 1 mg/ml. […] The blood samples were collected in tubes with K2 EDTA anticoagulant and further processed to collect plasma by centrifugation at 3500 rpm at 5° C. for 10 min Samples were further processed in LC/MS to determine the concentration of the compounds. Non-compartmental analysis was performed to obtain the PK parameters using the PKPlus software package (Simulation Plus). The area under the plasma concentration-time curve (AUCint) is calculated from time 0 to infinity where the Cmax is the maximal concentration achieved in plasma and t112 is the terminal elimination half-life. Oral bioavailability was calculated as AUCorailAUC1v*100.

[5] = target: T2, CYP 3A4 (Homo sapiens, UniProt P08684); assay: Cytochrome P450 inhibition assay, CYP 3A4; type: in vitro ADME; conditions: human liver microsomes
T2 construct: Human liver microsomes were diluted in Potassium phosphate buffer; tissue Charles River Laboratory (performed the study); host or cells: human liver microsomes

[6] = HFD 12-18 weeks, 5 mg/kg/day x 4 days, pre- vs post-treatment
[7] = HFD-induced T2D mice, 5 mg/kg i.p. 4-10 days
[8] = after 16 weeks of HFD feeding, vs vehicle

Row | Compound | Subsequent hypotonic SWELL1-LRRC8 activation ([1]; 250 nM) | Subsequent hypotonic SWELL1-LRRC8 activation ([1]; 1 μM) | Plasma membrane (PM) localization of endogenous SWELL1 [2] | bioavailability [4] [%] | AUCinf ([4]; Intraperitoneal) [ng·h/mL] | Cmax ([4]; Intraperitoneal) [ng/mL] | T-half ([4]; Intraperitoneal) [h] | AUCinf ([4]; Intravenous) [ng·h/mL] | Cmax ([4]; Intravenous) [ng/mL] | T-half ([4]; Intravenous) [h] | AUCinf ([4]; Oral) [ng·h/mL] | Cmax ([4]; Oral) [ng/mL] | T-half ([4]; Oral) [h] | IC50 [5] [µM] | also measured
1 | CCCCC1(C2CCCC2)Cc2cc(OCCCCCC(=O)O)c(Cl)c(Cl)c2C1=O (centres unmarked) [SN-406, 6-((2-butyl-6,7-dichloro-2-cyclopentyl-1-oxo-2,3-dihydro-1H-inden-5-yl)oxy)hexanoic acid] | markedly suppresses and delays | markedly suppresses and delays | enhanced | 48 | 18180 | 4300 | 1.809 | 6532 | 15130 | 0.7689 | 3131 | 660.7 | 2.058 | > 10 | Fasting blood glucose [3, 6]: markedly reduced; Glucose tolerance [3, 6]: improved; Insulin sensitivity based on HOMA-IR ([3]; HFD T2D mice, compared to SN071): trend toward improved; Glucose tolerance ([3]; HFD T2D mice, separate experiment, compared to SN071): significantly improved; Plasma concentrations relative to ICl,SWELL inhibitory concentrations ([4]; 5 mg/kg i.p. dosing): transiently approach; Plasma concentrations relative to ICl,SWELL inhibitory concentrations ([4]; 5 mg/kg p.o. dosing): remain well below
2 | CCCCC1(C2CCCC2)Cc2cc(OCCCC(=O)O)c(Cl)c(Cl)c2C1=O (centres unmarked) [SN-401, 4-((2-butyl-6,7-dichloro-2-cyclopentyl-1-oxo-2,3-dihydro-1H-inden-5-yl)oxy)butanoic acid] | markedly suppresses and delays | markedly suppresses and delays | enhanced | 79 | 23030 | 4367 | 2.056 | 5958 | 5443 | 1.428 | 4682 | 781 | 2.585 | > 10 | Glucose tolerance ([3]; HFD-T2D mice, daily i.p. for 8 weeks (FIG. 31D)): striking effects; Fasting blood glucose (FG) [3, 7]: normalized; Glucose tolerance (GTT) [3, 7]: normalized; Insulin-tolerance (ITT) [3, 7]: markedly improved; ITT ([3]; after 16 weeks of HFD feeding (ITT at 18 weeks), vs vehicle): marked improvements; FG [3, 8]: marked improvements; GTT [3, 8]: marked improvements
